Test results from publication PMC7347136 (PLoS ONE, 2020).

How the values were obtained:
panel of 256 kinases = test: Carna 256-kinase selectivity panel, overall; assay type: biochemical; settings: 1 μM
Experimental: IC50 values were determined from a 10-point concentration curve using ATP concentrations approximating Km values. […] The percentage inhibition of each test solution was calculated, which allowed the IC50 value to be determined from concentration versus percentage inhibition curves by fitting to a four parameter logistic curve.

BTK = biological target: T1, BTK (Homo sapiens, UniProt Q06187); test: Carna kinase panel screen; assay type: biochemical; settings: read-out: % Inhibition ± SD
T1 construct: purchased Carna Biosciences
How it was run: (§1)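 With ATP concentrations near the respective Km, a 10-point titration of each compound was run. Percent inhibition values were fitted (four-parameter logistic) to determine IC50.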

IRR = biological target: T2, IRR (Homo sapiens, UniProt P14616); test: Carna kinase panel screen; assay type: biochemical; settings: read-out: % Inhibition ± SD
T2 construct: purchased Carna Biosciences
How it was run: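 Values are IC50s, derived by four-parameter logistic regression of percentage inhibition against concentration. Each curve used 10 concentrations and ATP close to Km.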

EphB4 = biological target: T3, EphB4 (Homo sapiens, UniProt P54760); test: Carna kinase panel screen; assay type: biochemical; settings: read-out: % Inhibition ± SD
T3 construct: purchased Carna Biosciences
How it was run: as §1

NEK9 = biological target: T4, NEK9 (Homo sapiens, UniProt Q8TD19); test: Carna kinase panel screen; assay type: biochemical; settings: read-out: % Inhibition ± SD
T4 construct: purchased Carna Biosciences
How it was run: as §1

FMS = biological target: T5, FMS (Homo sapiens, UniProt P07333); test: Carna kinase panel screen; assay type: biochemical; settings: read-out: % Inhibition ± SD
T5 construct: purchased Carna Biosciences
How it was run: as §1

MAP2K5 = biological target: T6, MAP2K5 (Homo sapiens, UniProt Q13163); test: Carna kinase panel screen; assay type: biochemical; settings: read-out: % Inhibition ± SD
T6 construct: purchased Carna Biosciences
How it was run: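 IC50 from a 10-point concentration series run at ATP near Km; percent inhibition per concentration fitted to a four-parameter logistic curve.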

CaMK1a = biological target: T7, CaMK1a (Homo sapiens, UniProt Q14012); test: Carna kinase panel screen; assay type: biochemical; settings: read-out: % Inhibition ± SD
T7 construct: purchased Carna Biosciences
How it was run: as §1

PLK1 = biological target: T8, PLK1 (Homo sapiens, UniProt P53350); test: Carna kinase panel screen; assay type: biochemical; settings: read-out: % Inhibition ± SD
T8 construct: purchased Carna Biosciences
How it was run: as §1

CHK2 = biological target: T9, CHK2 (Homo sapiens, UniProt O96017); test: Carna kinase panel screen; assay type: biochemical; settings: read-out: % Inhibition ± SD
T9 construct: purchased Carna Biosciences
How it was run: as §1

KIT = biological target: T10, KIT (Homo sapiens, UniProt P10721); test: Carna kinase panel screen; assay type: biochemical; settings: read-out: % Inhibition ± SD
T10 construct: purchased Carna Biosciences
How it was run: as §1

JAK1 = biological target: T11, JAK1 (Homo sapiens, UniProt P23458); test: Carna kinase panel screen; assay type: biochemical; settings: read-out: % Inhibition ± SD
T11 construct: purchased Carna Biosciences
How it was run: as §1

CK2a1 = biological target: T12, CK2a1 (Homo sapiens, UniProt P68400); test: Carna kinase panel screen; assay type: biochemical; settings: read-out: % Inhibition ± SD
T12 construct: purchased Carna Biosciences
How it was run: as §1

TYK2 = biological target: T13, TYK2 (Homo sapiens, UniProt P29597); test: Carna kinase panel screen; assay type: biochemical; settings: read-out: % Inhibition ± SD
T13 construct: purchased Carna Biosciences
How it was run: as §1

IKKa = biological target: T14, IKKa (Homo sapiens, UniProt O15111); test: Carna kinase panel screen; assay type: biochemical; settings: read-out: % Inhibition ± SD
T14 construct: purchased Carna Biosciences
How it was run: as §1

PLK2 = biological target: T15, PLK2 (Homo sapiens, UniProt Q9NYY3); test: Carna kinase panel screen; assay type: biochemical; settings: read-out: % Inhibition ± SD
T15 construct: purchased Carna Biosciences
How it was run: as §1

TNK1 = biological target: T16, TNK1 (Homo sapiens, UniProt Q13470); test: Carna kinase panel screen; assay type: biochemical; settings: read-out: % Inhibition ± SD
T16 construct: purchased Carna Biosciences
How it was run: as §1

subcutaneous HL60 tumors = test: HL-60 human promyelocytic leukemia xenograft model; assay type: in vivo, athymic NCr-nu/nu mice
Description: Five-week-old female athymic NCr-nu/nu mice were purchased from Harlan Sprague-Dawley (Prattville, AL). The animals were housed in microisolator cages, with up to five animals per cage in a 12-h light/dark cycle. The animals received filtered water and sterilized rodent diet (Harlan-Teklad TD8656) ad libitum. Each mouse was implanted subcutaneously near the right flank with ten million HL-60 cells using a 23-gauge needle and allowed to grow. Tumors were allowed to reach 75–144 mm^3 in size before treatment initiation. […] The %TGI values were calculated and statistical analyses performed as above.

MCL1 = tested on: MCL1; parameters: method as in earlier work; settings: patient PBMCs; recommended phase 2 dose; cited from earlier work
[1] = tested on: all five cell lines (Cal51, MDA-MB-468, HCC1954, MCF10A, 184A1); test: Standard 72 h viability assay, breast panel; assay type: cell-based; settings: Homo sapiens
Experimental: Solid tumor cell lines were seeded in 100 μl medium into 96-well plates at an appropriate cell number determined by a cell dilution assay (Cal51–2000 cells/well; Colo205, MCF10A and 184A1–3000 cells/well and MDA-MB-468, HCC1954–4000 cells/well). AML suspension cells were seeded in 96-well plates at approximately 3000 cells per well. Cells were incubated overnight at 37°C, 5% CO2. The following day, 100 μl fresh medium containing increasing concentrations of appropriate compound was added and the cells were incubated for up to 72 h at 37°C, 5% CO2. For pulse treatment of solid (adherent) tumor cell lines, medium was aspirated and replaced with fresh drug-free medium. For pulse treatment of suspension lines, plates were centrifuged at 478 xg for 5 min at the end of the incubation period with compound, medium containing compound was carefully aspirated and replaced with fresh compound-free medium. A total of 72 h after the start of treatment, 20 μl of a 10X stock of resazurin sodium salt (Sigma-Aldrich, Dorset, UK) prepared in medium was added to the cells and incubated for up to 3 h. […] was measured on the Wallac Victor plate reader (Cambridge, UK) at 544–595 nm. IC50/70/90 calculations were determined in XLFit.

CDK2/cyclin E = biological target: T17, CDK2/cyclin E (Homo sapiens, UniProt P24941); test: Kinase assay with recombinant CDK/cyclins (Cyclacel); assay type: biochemical
T17 construct: made in house
Experimental: (§2) Kinase assays for CDK2, CDK4, CDK7 and CDK9 were carried out as described previously using recombinant CDK/cyclins generated at Cyclacel Ltd, Dundee, UK [29, 34, 35].

CDK4/cyclin D3 = biological target: T18, CDK4/cyclin D3 (Homo sapiens, UniProt P11802); test: as above; assay type: biochemical
T18 construct: made in house
Experimental: as §2

CDK7/cyclin H1/MAT1 = biological target: T19, CDK7/cyclin H1/MAT1 (Homo sapiens, UniProt P50613); test: as above; assay type: biochemical
T19 construct: purchased Carna Biosciences
Experimental: as §2

T4 sequence (Q8TD19 whole entry): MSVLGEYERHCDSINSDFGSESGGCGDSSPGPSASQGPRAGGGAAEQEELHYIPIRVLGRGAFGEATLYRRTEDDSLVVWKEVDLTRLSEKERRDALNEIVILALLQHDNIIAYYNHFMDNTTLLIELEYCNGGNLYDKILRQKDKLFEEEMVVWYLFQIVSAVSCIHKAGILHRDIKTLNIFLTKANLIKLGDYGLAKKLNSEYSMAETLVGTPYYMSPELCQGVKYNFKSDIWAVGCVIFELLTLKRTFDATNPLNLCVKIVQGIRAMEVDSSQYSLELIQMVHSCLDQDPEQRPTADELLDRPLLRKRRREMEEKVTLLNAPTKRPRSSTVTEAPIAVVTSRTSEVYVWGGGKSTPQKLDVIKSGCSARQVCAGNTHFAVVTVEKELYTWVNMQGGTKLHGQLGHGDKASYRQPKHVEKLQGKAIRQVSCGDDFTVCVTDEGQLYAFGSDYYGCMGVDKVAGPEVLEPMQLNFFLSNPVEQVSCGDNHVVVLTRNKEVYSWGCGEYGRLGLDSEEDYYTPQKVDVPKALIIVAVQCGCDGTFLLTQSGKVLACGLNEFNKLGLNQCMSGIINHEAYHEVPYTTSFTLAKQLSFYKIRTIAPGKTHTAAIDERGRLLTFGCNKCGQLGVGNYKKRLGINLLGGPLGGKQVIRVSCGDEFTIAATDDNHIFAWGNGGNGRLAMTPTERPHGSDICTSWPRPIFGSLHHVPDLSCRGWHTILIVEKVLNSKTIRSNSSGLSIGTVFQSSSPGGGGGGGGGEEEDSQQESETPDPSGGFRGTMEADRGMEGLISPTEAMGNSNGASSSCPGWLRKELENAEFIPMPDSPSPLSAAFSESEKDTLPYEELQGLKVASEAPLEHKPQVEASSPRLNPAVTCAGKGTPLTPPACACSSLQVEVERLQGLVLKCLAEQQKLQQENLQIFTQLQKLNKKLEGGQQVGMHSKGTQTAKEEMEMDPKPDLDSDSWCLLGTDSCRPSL
T19 sequence (P50613 whole entry): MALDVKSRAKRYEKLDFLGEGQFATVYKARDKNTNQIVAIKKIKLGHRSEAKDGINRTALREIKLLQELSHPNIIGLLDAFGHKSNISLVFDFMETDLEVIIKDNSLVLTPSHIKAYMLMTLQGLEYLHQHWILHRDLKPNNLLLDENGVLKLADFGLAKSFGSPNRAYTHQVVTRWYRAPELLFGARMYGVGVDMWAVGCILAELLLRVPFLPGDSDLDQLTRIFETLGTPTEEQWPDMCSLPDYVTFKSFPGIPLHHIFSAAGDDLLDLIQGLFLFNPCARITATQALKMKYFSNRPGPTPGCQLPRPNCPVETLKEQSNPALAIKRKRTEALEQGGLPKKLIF
T19 sequence (P51946 whole entry partner): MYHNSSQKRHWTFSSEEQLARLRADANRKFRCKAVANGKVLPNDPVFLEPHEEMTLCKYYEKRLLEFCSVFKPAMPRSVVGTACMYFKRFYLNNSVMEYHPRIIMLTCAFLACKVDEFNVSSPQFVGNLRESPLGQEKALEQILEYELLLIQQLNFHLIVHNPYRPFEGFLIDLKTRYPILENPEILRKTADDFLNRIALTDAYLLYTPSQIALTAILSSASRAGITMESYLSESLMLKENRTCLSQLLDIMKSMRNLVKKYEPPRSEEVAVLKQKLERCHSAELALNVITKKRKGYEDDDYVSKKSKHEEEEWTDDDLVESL
T19 sequence (P51948 whole entry partner): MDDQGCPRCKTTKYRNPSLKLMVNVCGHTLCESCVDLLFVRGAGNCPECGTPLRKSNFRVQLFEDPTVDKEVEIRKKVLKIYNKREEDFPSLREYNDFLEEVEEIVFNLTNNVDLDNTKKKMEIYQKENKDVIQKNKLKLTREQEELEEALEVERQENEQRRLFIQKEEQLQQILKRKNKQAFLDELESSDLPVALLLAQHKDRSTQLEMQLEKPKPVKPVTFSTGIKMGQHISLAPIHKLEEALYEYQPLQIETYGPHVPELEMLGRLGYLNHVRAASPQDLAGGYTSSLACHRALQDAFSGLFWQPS
T2 sequence (P14616 27-1297): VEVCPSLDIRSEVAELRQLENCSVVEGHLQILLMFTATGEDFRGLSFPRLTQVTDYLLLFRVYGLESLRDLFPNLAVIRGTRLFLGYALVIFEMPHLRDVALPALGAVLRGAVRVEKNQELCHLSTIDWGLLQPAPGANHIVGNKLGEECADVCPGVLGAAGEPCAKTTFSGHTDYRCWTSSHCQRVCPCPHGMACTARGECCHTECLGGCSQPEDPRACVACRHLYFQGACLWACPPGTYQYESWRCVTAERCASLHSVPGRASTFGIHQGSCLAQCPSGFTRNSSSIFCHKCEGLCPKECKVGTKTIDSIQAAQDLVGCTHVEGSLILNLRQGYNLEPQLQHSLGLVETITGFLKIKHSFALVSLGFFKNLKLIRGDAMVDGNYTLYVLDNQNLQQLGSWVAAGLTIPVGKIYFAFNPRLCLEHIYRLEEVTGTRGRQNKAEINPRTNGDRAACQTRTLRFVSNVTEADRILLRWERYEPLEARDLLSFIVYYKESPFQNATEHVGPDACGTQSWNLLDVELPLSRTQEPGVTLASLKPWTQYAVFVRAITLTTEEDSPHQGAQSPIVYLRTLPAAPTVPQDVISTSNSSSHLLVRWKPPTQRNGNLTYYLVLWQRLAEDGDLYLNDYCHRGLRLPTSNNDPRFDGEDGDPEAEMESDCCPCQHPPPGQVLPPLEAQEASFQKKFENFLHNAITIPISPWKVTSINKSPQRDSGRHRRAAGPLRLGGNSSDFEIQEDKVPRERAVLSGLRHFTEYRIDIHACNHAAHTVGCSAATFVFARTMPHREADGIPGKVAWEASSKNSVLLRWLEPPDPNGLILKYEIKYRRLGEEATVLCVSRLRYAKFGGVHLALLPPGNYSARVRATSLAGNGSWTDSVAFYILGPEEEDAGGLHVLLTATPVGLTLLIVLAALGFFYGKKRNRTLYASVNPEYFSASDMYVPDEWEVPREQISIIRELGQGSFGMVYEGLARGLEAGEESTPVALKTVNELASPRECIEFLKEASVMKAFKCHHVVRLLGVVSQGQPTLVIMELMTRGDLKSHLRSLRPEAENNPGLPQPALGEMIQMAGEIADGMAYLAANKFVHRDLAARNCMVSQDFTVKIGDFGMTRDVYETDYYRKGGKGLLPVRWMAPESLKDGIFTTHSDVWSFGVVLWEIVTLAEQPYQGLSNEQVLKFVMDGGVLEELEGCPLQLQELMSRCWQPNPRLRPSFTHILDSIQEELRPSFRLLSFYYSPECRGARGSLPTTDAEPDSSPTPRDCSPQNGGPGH
T9 sequence (O96017 whole entry): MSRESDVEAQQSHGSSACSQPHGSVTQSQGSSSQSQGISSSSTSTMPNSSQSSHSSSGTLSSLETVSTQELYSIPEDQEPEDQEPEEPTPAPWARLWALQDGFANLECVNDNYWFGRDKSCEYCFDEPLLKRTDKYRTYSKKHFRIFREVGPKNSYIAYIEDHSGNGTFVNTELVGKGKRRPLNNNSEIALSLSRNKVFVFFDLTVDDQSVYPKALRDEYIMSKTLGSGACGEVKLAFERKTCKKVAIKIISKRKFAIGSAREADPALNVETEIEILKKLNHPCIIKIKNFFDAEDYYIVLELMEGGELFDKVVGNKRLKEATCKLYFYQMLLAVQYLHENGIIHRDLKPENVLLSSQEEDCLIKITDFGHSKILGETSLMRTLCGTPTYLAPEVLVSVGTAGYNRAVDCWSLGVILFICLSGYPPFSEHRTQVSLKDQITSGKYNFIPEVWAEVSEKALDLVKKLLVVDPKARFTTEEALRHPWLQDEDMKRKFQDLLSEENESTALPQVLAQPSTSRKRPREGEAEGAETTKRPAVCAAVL
T7 sequence (Q14012 whole entry): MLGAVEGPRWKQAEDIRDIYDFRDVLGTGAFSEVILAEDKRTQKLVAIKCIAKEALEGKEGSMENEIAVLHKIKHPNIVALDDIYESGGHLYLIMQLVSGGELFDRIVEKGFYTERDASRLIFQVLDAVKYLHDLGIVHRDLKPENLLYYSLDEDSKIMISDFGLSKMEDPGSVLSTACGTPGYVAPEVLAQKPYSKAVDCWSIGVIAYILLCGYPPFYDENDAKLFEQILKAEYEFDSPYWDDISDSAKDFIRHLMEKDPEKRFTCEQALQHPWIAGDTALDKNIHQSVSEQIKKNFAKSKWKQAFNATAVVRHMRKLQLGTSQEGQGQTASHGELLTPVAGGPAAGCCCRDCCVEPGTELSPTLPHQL
T14 sequence (O15111 whole entry): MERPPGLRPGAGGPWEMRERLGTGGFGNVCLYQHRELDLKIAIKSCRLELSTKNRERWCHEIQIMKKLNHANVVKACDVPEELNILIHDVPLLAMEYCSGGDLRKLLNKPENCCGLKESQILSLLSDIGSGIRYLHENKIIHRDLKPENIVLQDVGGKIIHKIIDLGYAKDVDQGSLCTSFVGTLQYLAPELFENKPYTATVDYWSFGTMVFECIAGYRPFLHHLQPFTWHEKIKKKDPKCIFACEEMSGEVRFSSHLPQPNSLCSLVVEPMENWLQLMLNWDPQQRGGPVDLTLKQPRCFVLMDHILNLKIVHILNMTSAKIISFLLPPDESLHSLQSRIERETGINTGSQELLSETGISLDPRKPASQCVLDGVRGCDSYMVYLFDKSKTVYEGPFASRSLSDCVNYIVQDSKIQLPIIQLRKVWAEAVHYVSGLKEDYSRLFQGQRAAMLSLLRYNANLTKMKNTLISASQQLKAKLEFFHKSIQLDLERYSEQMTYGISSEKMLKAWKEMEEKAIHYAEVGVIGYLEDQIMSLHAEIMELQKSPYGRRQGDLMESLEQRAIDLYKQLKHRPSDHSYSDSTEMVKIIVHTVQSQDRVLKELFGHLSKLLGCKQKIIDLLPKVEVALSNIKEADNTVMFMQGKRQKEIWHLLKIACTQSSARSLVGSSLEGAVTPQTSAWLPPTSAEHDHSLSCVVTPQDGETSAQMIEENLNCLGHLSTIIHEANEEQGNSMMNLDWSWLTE

For `CC[C@H](Nc1nc(NCc2cnc(C)cc2C)c2ncn(C(C)C)c2n1)[C@@H](C)O` [Fadraciclib, 2-pentanol, 3-[[6-[[(4,6-dimethyl-3-pyridinyl)methyl]amino]-9-(1-methylethyl)-9Hpurin-2-yl]amino]-, (2R,3S)], the “number of kinases inhibited >50%” value (panel of 256 kinases) was 9, the inhibition at 1 µM (BTK) was 5.3 ± 0.4% and the inhibition at 1 µM (IRR) was -5.5%. It also gave an inhibition at 1 µM (EphB4) of 3.6 ± 0.1%, an inhibition at 1 µM (NEK9) of -23.1 ± 0.2% and an inhibition at 1 µM (FMS) of -6.3 ± 0.1%. The inhibition at 1 µM (MAP2K5) was 11.9 ± 1.6%, the inhibition at 1 µM (CaMK1a) was -14.8 ± 0.2% and the inhibition at 1 µM (PLK1) was 5.7 ± 0.3%. It also gave an inhibition at 1 µM (CHK2) of -7.6 ± 0.1%, an inhibition at 1 µM (KIT) of -2.4 ± 0.1% and an inhibition at 1 µM (JAK1) of -3.1%. For the same compound, the inhibition at 1 µM (CK2a1) was -22.8 ± 0.7%, the inhibition at 1 µM (TYK2) was -0.1% and the inhibition at 1 µM (IKKa) was 0%. The inhibition at 1 µM (PLK2) was 1%, the inhibition at 1 µM (TNK1) was -0.2 ± 0.2% and the “mean body weight loss” value (subcutaneous HL60 tumors; 70 mg/kg oral (highest dose)) was 8%. The “tumor growth delay T-C” value (subcutaneous HL60 tumors; 70 mg/kg oral, 5 days on/2 days off, 2 cycles) was greater than 12.6 days, the TGI (subcutaneous HL60 tumors; 70 mg/kg oral, Day 11) was 90% and the tumor regression (subcutaneous HL60 tumors; 70 mg/kg oral, groups of 10 animals) was “Two animals achieved tumor regression and one was determined to be tumor-free”. For the same compound, the “duration of MCL1 suppression” value (MCL1) was greater than 24 h, the IC50 [1] was no more than 400 nM and the IC50 (CDK2/cyclin E) was 20 ± 1 nM. The IC50 (CDK4/cyclin D3) was greater than 10000 nM and the IC50 (CDK7/cyclin H1/MAT1) was 730 ± 160 nM.
